From patent publication US11083724B2, “Rimegepant for CGRP related disorders” (Biohaven Pharmaceutical Holding Company Ltd., priority 2018, dated 2021)

Tested on: subjects with Acute Migraines
Test: Study 301 (BHV3000-301, NCT03235479): Phase 3 double-blind placebo-controlled trial, rimegepant 75 mg tablet, acute treatment of migraine
Assay type: in vivo, human
Conditions: for Freedom from MBS at 2 hours / Pain Freedom (pain-free) at 2 hours: N = 543
Procedure: Clinical Trial—BHV3000-301: Phase 3: Double-Blind, Randomized, Placebo-Controlled, Safety and Efficacy Trial of BHV-3000 (Rimegepant) for the Acute Treatment of Migraine (ClinicalTrials.gov Identifier: NCT03235479). A phase 3 clinical study was conducted with 1490 participants, as follows. The purpose of this study was to compare the efficacy of BHV-3000 (rimegepant) versus placebo in subjects with Acute Migraines Study Design • Study Type: Interventional (Clinical Trial) • Actual Enrollment: 1490 participants • Allocation: Randomized • Intervention Model: Parallel Assignment • Intervention Model Description: Double-blind to Sponsor, Investigator and Subject Randomized Controlled Trial • Masking: Triple (Participant, Care Provider, Investigator) • Masking Description: Double-blind to Sponsor, Investigator and Subject • Primary Purpose: Treatment • Official Title: BHV3000-301: Phase 3: Double-Blind, Randomized, Placebo-Controlled, Safety and Efficacy Trial of BHV-3000 (Rimegepant) for the Acute Treatment of Migraine Arms and Interventions Outcome Measures Primary Outcome Measures: • 1. Pain freedom of rimegepant (75 mg tablet) compared with placebo in the acute treatment of migraine will be measured using the number of evaluable subjects that report no pain at 2 hours post-dose. [Time Frame: Two hours post dose] • Pain will be measured on a 4 point Likert scale (0=none, 1=mild, 2=moderate, 3=severe) • 2. Freedom from the most bothersome symptom (MBS) of rimegepant (75 mg tablet) compared with placebo will be measured using the number of evaluable subjects that report the absence of their MBS at 2 hours post-dose. [Time Frame: Two hours post dose] • The MBS (nausea, phonophobia or photophobia) will measured using a binary scale (0=absent, 1=present). Secondary Outcome Measures: • 1. […] [Time Frame: 2 hours-24 hours post-dose] • Sustained Pain Freedom as measured by a 4 point numeric rating scale (None, Mild, Moderate, Severe) • 2. The difference between rimegepant (75 mg tablet) compared to placebo by tabulating the absence of photophobia at 2 hours post-dose in the subset of subjects that reported the presence of photophobia at headache baseline. [Time Frame: 2 hours post-dose] • Photophobia • 3. To evaluate rimegepant (75 mg tablet) compared to placebo by tabulating the number of subjects that report the absence of phonophobia at 2 hours post-dose in the subset of subjects that reported the presence of phonophobia at headache baseline. [Time Frame: 2 hours post-dose] • Phonophobia • 4. To measure the difference between rimegepant (75 mg tablet) compared to placebo on Pain Relief, at 2 hours post-dose, for those that report a pain level of moderate or severe at baseline and then report a pain level of none or mild. [Time Frame: 2 hours post-dose] • Pain Relief as measured by a 4 point numeric rating scale (None, Mild, Moderate, Severe) • 5. Freedom from Nausea by tabulating the number of subjects that report the absence of nausea at 2 hours post-dose in the subset of subjects that reported the presence of nausea at headache baseline. [Time Frame: 2 hours post-dose] • Freedom from Nausea • 6. The difference between rimegepant (75 mg tablet) compared to placebo on the probability of requiring rescue medication using the number of subjects that take rescue medication within […] administration of study medication (BHV3000 or placebo). [Time Frame: up to 24 hours post-dose] • Requiring Rescue Medication • 7. […] [Time Frame: 2 hours-24 hours post-dose] • Sustained Pain Freedom • 8. […] [Time Frame: 2 hours-24 hours post-dose] • Sustained Pain Relief as measured by a 4 point numeric rating scale (None, Mild, Moderate, Severe) • 9. […] [Time Frame: 2 hours-48 hours post-dose] • Sustained Pain Relief as measured by a 4 point numeric rating scale (None, Mild, Moderate, Severe) • 10. […]

[1] = Study 301, single 75 mg tablet, listed as rimegepant

- bilirubin elevations >2 times ULN (Study 301): No bilirubin elevations
- transaminase level >5 times ULN (Study 301): no subject
- transaminase level >3 times ULN (Study 301, one subject): 0.2%
Structure (SMILES): N[C@@H]1c2cccnc2[C@H](OC(=O)N2CCC(n3c(=O)[nH]c4ncccc43)CC2)CC[C@H]1c1cccc(F)c1F [Rimegepant, [(5S,6S,9R)-5-amino-6-(2,3-difluorophenyl)-6,7,8,9-tetrahydro-5H-cyclohepta[b]pyridin-9-yl] 4-(2-oxo-3H-imidazo[4,5-b]pyridin-1-yl)piperidine-1-carboxylate]
- SAEs related to the study drug (Study 301): No SAE
- AE dizziness (Study 301, 4/546): 0.7%
- AE nausea (Study 301, 5/546): 0.9%
- Serum ALT or AST levels greater than ULN (Study 301, 11/546): 2.0%
- functional disability: patients achieving normal function at 2 hours versus placebo (Study 301, P<0.0001): greater proportion
- Serious AEs (SAEs) (Study 301, n=2): 0.4%
- Free from MBS at 2 hours, subjects [n/N] (Study 301, single 75 mg tablet): [199/543]
- Nausea-free at 2 hours (Study 301, single 75 mg tablet): 46.9%
- Nausea-free at 2 hours, subjects [n/N] (Study 301, single 75 mg tablet): [149/318]
- Pain relief at 2 hours (Study 301, single 75 mg tablet): 56.0%
- Pain relief at 2 hours, subjects [n/N] (Study 301, single 75 mg tablet): [304/543]
- Pain-free at 2 hours, subjects [n/N] (Study 301, single 75 mg tablet): [104/543]
- Phonophobia-free at 2 hours (Study 301, single 75 mg tablet): 38.6%
- Phonophobia-free at 2 hours, subjects [n/N] (Study 301, single 75 mg tablet): [133/345]
- Photophobia-free at 2 hours (Study 301, single 75 mg tablet): 34.9%
- Photophobia-free at 2 hours, subjects [n/N] (Study 301, single 75 mg tablet): [164/470]
- Sustained pain relief, 2-24 hours (Study 301, single 75 mg tablet): 38.9%
- Sustained pain relief, 2-24 hours, subjects [n/N] (Study 301, single 75 mg tablet): [211/543]
- Freedom from MBS at 2 hours (Study 301, single 75 mg tablet): 36.6%
- Pain Freedom (pain-free) at 2 hours (Study 301, single 75 mg tablet): 19.2%
- Freedom from MBS at 2 hours [1]: 36.6%
- Pain Freedom (pain-free) at 2 hours [1]: 19.2%
- Pain relief at 2 hours [1]: 56.0%
- sustained pain relief from 2 through 48 hours postdose versus placebo (Study 301, single dose, no rescue medication, P=0.0003): superiority versus placebo
- sustained pain freedom from 2 through 48 hours postdose versus placebo (Study 301, single dose, no rescue medication, P=0.013): superiority versus placebo
